Target: Low molecular weight phosphotyrosine protein phosphatase ACP1 (Homo sapiens) (UniProt P24666)
Experiment: Inhibition of human cytoplasmic protein tyrosine phosphatase A assessed as change in enzyme activity at pH 7

Low molecular weight phosphotyrosine protein phosphatase ACP1 (Homo sapiens), sequence (P24666 whole entry, looked up): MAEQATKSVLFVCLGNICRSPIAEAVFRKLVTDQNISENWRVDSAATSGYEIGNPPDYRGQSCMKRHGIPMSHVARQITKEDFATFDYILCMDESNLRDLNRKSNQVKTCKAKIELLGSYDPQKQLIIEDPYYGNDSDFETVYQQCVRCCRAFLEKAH

IC50: 72 µM
SMILES: O=NC(Cc1ccnc2ccccc12)C(=O)O (stereo unspecified) [2-(hydroxyimino)-3-(quinolin-4-yl)propanoic acid]

Source: BindingDB's records for doi:10.1016/j.bmc.2010.04.050 (Purdue University, 2010)
